Assay results reported in ChEMBL document CHEMBL1125145, “Antimicrobial properties of N3-(iodoacetyl)-L-2,3-diaminopropanoic acid-peptide conjugates” (1990).

Key:
[1] = tested on: Candida albicans; test: Rate of transport of compound in Candida albicans ATCC 26278; type: functional
[2] = tested on: Candida albicans; test: Intracellular cleavage exhibited in Candida albicans ATCC 26278; type: functional

Structure (SMILES): CCC[C@H](NC(=O)[C@H](N)CCSC)C(=O)N[C@@H](CNC(=O)CI)C(=O)O
- Transport rate [1]: 0.5 µmol/min/mg

Structure (SMILES): CCC[C@H](NC(=O)[C@@H](N)CCSC)C(=O)N[C@@H](CNC(=O)CI)C(=O)O
- Cleavage rate [2]: 3.8 µmol/min/mg

Structure (SMILES): CSCCC(N)C(=O)NC(CNC(=O)CI)C(=O)O (centres undefined)
- Cleavage rate [2]: 3.1 µmol/min/mg
- Transport rate [1]: 1.9 µmol/min/mg
